Assay results as given in publication PMC11861159, “Design, synthesis, and in vitro, in vivo, and in silico evaluation of novel substituted 1,3,4-thiadiazole derivatives as anticonvulsant agents” (Frontiers in Chemistry, 2025).

Columns and labels:
[1] = target: T1, human carbonic anhydrase II (Homo sapiens, UniProt P00918); test: Human carbonic anhydrase II colorimetric (p-nitrophenyl acetate) inhibition assay; type: biochemical; conditions: mean ± SEM, three independent experiments in triplicate; read-out: CA II (IC50)
T1 construct: purchased Sino Biological Inc, Beijing, China
Experimental: (§1) In brief, the reaction mixture contained 60 μL of 50 mM Tris-sulfate buffer (pH 7.6, containing 0.1 mM ZnCl2),10 μL (0.5 mM) of the test compound in 1% DMSO, and 10 μL of human carbonic anhydrase II and IX (Sino Biological Inc, Beijing, China). All the ingredients were mixed well and pre-incubated at 25°C for 10 min. Substrate p-nitrophenyl acetate was prepared as a 6 mM stock solution using 5% of acetonitrile in buffer and was used fresh. […] The total assay volume was adjusted to 100 μL and further incubated at 37°C for 30 min. Furthermore, all the ingredients were mixed properly, and absorbance was measured. […] The results reported are the mean of triplicate experiments (±SEM) and expressed IC50 values, which were calculated.

[2] = target: T2, human carbonic anhydrase IX (Homo sapiens, UniProt Q16790); test: Human carbonic anhydrase IX colorimetric (p-nitrophenyl acetate) inhibition assay; type: biochemical; conditions: mean ± SEM, three independent experiments in triplicate; read-out: CA IX (IC50)
T2 construct: purchased Sino Biological Inc, Beijing, China
Experimental: as §1

MES-induced seizures = test: Maximal electroshock-induced seizure (MES) test; type: in vivo, male Swiss albino mice; conditions: for Minimum active dose (mg/kg) MES 0.5 h / Minimum active dose (mg/kg) MES 4 h: oral, lowest dose active in half or more of the mice, n = 6;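 for % protection MES 0.5 h: percent reduction of the test group versus the control group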;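 for % protection MES 4 h: percent reduction of the test group versus the control group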
PTZ-induced seizures = test: Subcutaneous pentylenetetrazole (sc-PTZ) test; type: in vivo, male Swiss albino mice; conditions: for Minimum active dose (mg/kg) Sc-PTZ 0.5 h / Minimum active dose (mg/kg) Sc-PTZ 4 h: oral, lowest dose active in half or more of the mice, n = 6;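 for % protection Sc-PTZ 0.5 h: percent reduction of the test group versus the control group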;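 for % protection Sc-PTZ 4 h: percent reduction of the test group versus the control group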
mice = test: Rotarod neurotoxicity screening; type: in vivo, male Swiss albino mice; conditions: for Neurotoxicity (rotarod test), result in words: at the highest dose (300 mg/kg); for Neurotoxicity dose (mg/kg) 0.5 h / Neurotoxicity dose (mg/kg) 4 h: rotarod, oral doses 30, 100, 300 mg/kg
Experimental: The rotarod test, as described in the literature, was used to evaluate neurotoxicity (NT) in mice. In brief, six mice (one group) were trained to balance on a spinning rod (3 cm diameter and 6 rpm speed) to familiarize with the rotarod apparatus (Orchid Scientific, India). Each mouse underwent three trials to remain on the rotating rod for over 1 minute, with the experiment’s cutoff time (180 s) remaining constant. Different pre-oral (p.o.) doses of test and standard substances were administered to the trained animals.

nitric oxide (NO) = test: Nitrite/NO level (Greiss reagent) in brain homogenate of PTZ-treated mice; type: in vivo; conditions: brain supernatant, compared to pentylenetetrazole-treated group, n = 6
Experimental: (§2) Brain tissue homogenates were prepared by isolating the brain (tissue) from the mice. Animals were euthanized under anesthesia by ketamine (80 mg/kg) and xylazine (5 mg/kg) after 8 h of inducing test and standard compounds. Mice’s brains (tissue) were quickly removed and weighed, and the whole brain samples were washed twice with ice-cold saline solution before being deposited in glass vials, labeled, and stored in a deep freeze (−30°C) until further use. Brain tissue samples were homogenized with a glass handheld homogenizer (PTFE coated). Tissue homogenates (10% w/v) were prepared in cold 0.1 M phosphate buffer (pH adjusted to 7.4) using a homogenizer. To test biological parameters, the supernatant from homogenates was centrifuged at 12,000 rpm for 20 min at 4°C.
Greiss reagent, a solution of 0.5% sulfonamide, 2.5% phosphoric acid, and 0.05% naphthyl ethylenediamine, was used to measure nitric oxide (NO) in TSH. Greiss reagent and TSH absorbance were measured at 540 nm, and the sodium nitrite standard curve was used to calculate the quantity of nitrite ([Wills, 1996]; [Green et al., 1982]).

glutathione (GSH) = test: Reduced glutathione level in brain of PTZ-treated mice; type: in vivo; conditions: compared to pentylenetetrazole-treated group, n = 6
Experimental: as §2
The quantity of glutathione (GSH) in the brain was determined using the Sedlak and Lindsay method ([Pant et al., 2023]). In brief, brain tissue was deproteinized with an equal amount of 10% TCA and left at 4°C for 2 h. The contents were centrifuged for 15 min at 1200 rpm. The supernatant was mixed with 2 mL of 0.4 M Tris buffer (pH 8.9) containing 0.02 M EDTA (pH 8.9), and then 0.01 M DTNB was added. Finally, the mixture was diluted with 0.5 mL of distilled water to make a total volume of 3 mL, and absorbance was measured using a spectrophotometer at 412 nm, with results expressed as mg GSH/gm tissue.

[3] = test system: superoxide dismutase (SOD); test: Superoxide dismutase activity in brain homogenate of PTZ-treated mice; type: in vivo; conditions: compared to PTZ-administered group, n = 6
Experimental: as §2
Sun et al.'s approach ([…]) was used to determine Cu, Zn-SOD activity. An oxidase complex ([…]) generates superoxide radicals, which react with NBT to yield the formazan molecule in this process. In brief, a reactive was created by combining 0.1 mM xanthine, 0.1 mM EDTA, 50 mg bovine serum albumin, 25 mM NBT, and 40 mM Na2CO3 (pH 10.2). […] The sample’s absorbance was measured at 560 nm. […] The quantity of the enzyme that blocked NBT conversion to formazan by 50% was determined as one unit of SOD activity. SOD activity was measured in units per milligram of protein.

[4] = test system: total antioxidant capacity (TAC); test: Total antioxidant capacity (FRAP) in brain tissue of PTZ-treated mice; type: in vivo; conditions: compared to pentylenetetrazole-treated group, n = 6
Experimental: as §2
Total antioxidant capacity (TAC) was measured by mixing 200 μL of tissue samples with 3 mL of ferric-reducing antioxidant power (FRAP) reagent in a vortex. After incubating samples and blank tubes in a water bath for 30 min at 37°C, the absorbance of the samples was measured at 593 nm. For the standard curve, a stock solution of FeSO4.7H2O in distilled water was produced. Stock solution concentrations were 200, 400, 800, 1200, and 1600 μM. The curve results were given as mM of ferrous sulfate equivalent Fe2+/L ([Sun et al., 1988]).

GABA level = test: Estimation of brain GABA level; type: in vivo, mice; conditions: 30 mg/kg p.o., 2 h after administration, compared to pentylenetetrazole-treated group
Experimental: as §2, with “Animals were euthanized under anesthesia by ketamine (80 mg/kg) and xylazine (5 mg/kg) after 8 h of inducing test and standard compounds.” left out
The supernatant was put on silica gel 60 F254 aluminum sheets (10 cm × 10 cm) as the stationary phase, with the mobile phase consisting of water-saturated phenol. Prior to chromatography, TLC plates were prewashed with methanol and activated in an oven at 50°C for 5 min. The 0.1 mL supernatant solutions were applied in the form of bands on TLC plates. At room temperature, ascending development was carried out in a glass chamber saturated with the mobile phase for 30 min until a length of 80 mm was reached. The TLC plates that had been created were air-dried and treated with ninhydrin. […] The method’s specificity was determined by obtaining standard GABA samples and comparing their Rf values. […]

induced seizures = test: Anticonvulsant screening (MES and sc-PTZ), outcome recovery/death
Experimental: The test compounds and the standard drugs were dissolved in a 0.9% NaCl solution.
After half an hour of p.o. administration of the standard and the tested compounds, an electro-convulsometer (Outus, Ambala Cantt, India) delivered an electrical stimulus of sufficient intensity (25 mA, 500 V, 50 Hz, 0.2 s) via auricular electrodes to induce maximal seizures (Figure 1). To avoid the animal’s death, a drop of 0.9% saline was injected into the eye before the insertion of the electrodes. The tonic hind limb extension (i.e., the hind limbs of the animals outstretched 180° to the plane of the body axis) served as the basic principle for the occurrence of seizure activity. Abolition of the hind limb tonic extensor (HLTE) component of the seizure is defined as protection.

Compound	IC50 [1] [nM]	IC50 [2] [nM]	% protection MES 0.5 h (MES-induced seizures; 30 mg/kg oral) [%]	% protection MES 4 h (MES-induced seizures; 30 mg/kg oral) [%]	% protection MES 0.5 h (MES-induced seizures; 100 mg/kg oral) [%]	% protection MES 4 h (MES-induced seizures; 100 mg/kg oral) [%]	% protection MES 0.5 h (MES-induced seizures; 300 mg/kg oral) [%]	% protection MES 4 h (MES-induced seizures; 300 mg/kg oral) [%]	Minimum active dose (mg/kg) MES 0.5 h (MES-induced seizures) [mg/kg]	Minimum active dose (mg/kg) MES 4 h (MES-induced seizures) [mg/kg]	% protection Sc-PTZ 0.5 h (PTZ-induced seizures; 30 mg/kg oral) [%]	% protection Sc-PTZ 0.5 h (PTZ-induced seizures; 300 mg/kg oral) [%]	% protection Sc-PTZ 4 h (PTZ-induced seizures; 300 mg/kg oral) [%]	Minimum active dose (mg/kg) Sc-PTZ 0.5 h (PTZ-induced seizures) [mg/kg]	Minimum active dose (mg/kg) Sc-PTZ 4 h (PTZ-induced seizures) [mg/kg]	Neurotoxicity dose (mg/kg) 0.5 h (mice)	Neurotoxicity dose (mg/kg) 4 h (mice)	Recovery/death (induced seizures; 30 mg/kg oral)	Recovery/death (induced seizures; 100 mg/kg oral)	Recovery/death (induced seizures; 300 mg/kg oral)	further results
CCN(CC)CCOc1cccc(C(=O)Nc2nncs2)c1 [Compound 6d, 3-(2-(diethylamino)ethoxy)-N-(1,3,4-thiadiazol-2-yl)benzamide]	80 ± 50	100 ± 20	38.96	41.53	55.38	60	72.30	89.46	30	30	38.59	70.4	82.88	30	30	- (The indication - (dash) denotes a lack of action at the maximum dose supplied (300 mg/kg))	- (The indication - (dash) denotes a lack of action at the maximum dose supplied (300 mg/kg))	Recovery	Recovery	Recovery	% protection Sc-PTZ 4 h (PTZ-induced seizures; 30 mg/kg oral): 46.34%; % protection Sc-PTZ 0.5 h (PTZ-induced seizures; 100 mg/kg oral): 58.30%; % protection Sc-PTZ 4 h (PTZ-induced seizures; 100 mg/kg oral): 66.34%; Neurotoxicity (rotarod test), result in words (mice): without any sign of neurotoxicity; NO (nitrite) level (nitric oxide (NO)): significantly reduced NO levels; GSH level (glutathione (GSH)): significant increase in GSH levels; SOD activity [3]: significant increase in SOD activity; TAC level (FRAP) [4]: significant increase in TAC levels; GABA level in the brain (GABA level): significant increase in GABA levels
CCN(CC)CCOc1cc(C(=O)Nc2nncs2)ccc1OC [Compound 7d, 4-Methoxy-3-(2-(diethylamino)ethoxy)-N-(1,3,4-thiadiazol-2-yl)benzamide]	480 ± 40	280 ± 30	30.76	40	41.53	63.07	61.53	76.92	30	30	42.43	61.46	75.18	30	100	- (The indication - (dash) denotes a lack of action at the maximum dose supplied (300 mg/kg))	- (The indication - (dash) denotes a lack of action at the maximum dose supplied (300 mg/kg))	Recovery	Recovery	Recovery	% protection Sc-PTZ 0.5 h (PTZ-induced seizures; 100 mg/kg oral): 53.27%; % protection Sc-PTZ 4 h (PTZ-induced seizures; 100 mg/kg oral): 62.85%; Neurotoxicity (rotarod test), result in words (mice): without any sign of neurotoxicity; NO (nitrite) level (nitric oxide (NO)): significantly reduced NO levels; GSH level (glutathione (GSH)): significant increase in GSH levels; TAC level (FRAP) [4]: significant increase in TAC levels; GABA level in the brain (GABA level): significant increase in GABA levels
COc1ccc(C(=O)Nc2nncs2)cc1OCCN1CCCC1 [Compound 7c, 4-Methoxy-3-(2-(pyrrolidin-1-yl)ethoxy)-N-(1,3,4-thiadiazol-2-yl)benzamide]	690 ± 20	640 ± 40	–	–	24.61	32.30	35.38	49.23	100	100	–	35.38	36.75	300	300	- (The indication - (dash) denotes a lack of action at the maximum dose supplied (300 mg/kg))	- (The indication - (dash) denotes a lack of action at the maximum dose supplied (300 mg/kg))	Recovery	Recovery	Recovery	–
